Measurements as given in US20080009019A1, “HIGH THROUGHPUT METHOD FOR SCREENING CANDIDATE COMPOUNDS FOR BIOLOGICAL ACTIVITY” (SmithKline Beecham Corporation, priority 2001, published 2008).

Experiments:
Assay type in all cases: cell-based
MC1R [1] = biological target: T1, MC1R (Homo sapiens, UniProt Q01726); assay: Well-based reporter assay
MC1R [2] = biological target: T1, MC1R; assay: Bead-based lawn assay, peptides photocleaved from beads in lawn of CHO-6CRE-luc+-MC1R cells; parameters: expressed in transfected cells; conditions: for response value at plateau compared with maximal response to [NDP]-α-MSH: 3-minute UV time point, FIG. 11B versus FIG. 11A; for UV exposure time point at which response began to plateau: 5 beads per peptide pushed into lawn, UV 365 nm for 0, 0.5, 1, 3, 10 minutes, FIG. 11B
Description: Agonists for GPCRs were assayed using beads to which peptides or compounds are attached by a photolinker. The beads were either mixed in the agarose or were applied to the surface of the lawn. The attached compound or peptide was cleaved by exposure to UV light.
Cell culture and assay methods were as described in Example 1. Hexamer peptides were linked to 200 micrometer […]™ microsphere beads (polystyrene core with […]™ pegs—available from Rapp Polymere GmbH of Tubingen, Germany) by a photocleavable linker. Two peptides were tested for validation purposes: Peptide 1-Ac-NH-Ser-Val-dHis-dPhe-Arg-Trp (SEQ ID NO:1) and Peptide 2-Ac-NH-Val-Ala-dHis-dPhe-Arg-Tyr (SEQ ID NO:2). Beads were added to the agarose lawn either by pushing the bead into the agarose with forceps or by suspending the beads in the melted agarose/cell mixture. Peptides were cleaved from the beads by exposure to ultraviolet light using a UV lamp set at 365 nm wavelength (λ).
A time course of delivery of MC1R agonist peptides 1 and 2, which were linked to beads (described in methods), to a lawn of CHO-6CRE-luc^+-MC1R cells is shown in FIGS. 10A-10E. The peptides were cleaved from the beads by increasing the time of UV exposure. FIGS. 10A-10E depict UV exposure for 0, 0.5, 1, 3, and 10 minutes, respectively. A concentration-response curve for of [NDP]-α-MSH was run in row 1 on each lawn at the same concentrations as in FIG. 9. Five (5) beads each of peptide 1 and 2 were pushed into the agarose layer with forceps. Peptide 1 and 2 were on the left and right of each lawn, respectively.
FIG. 11A is a line graph representation of the average luminescence of the 5 beads at each time point. The response was calculated by subtracting the background z value for the lawn from the z value for each area to which the bead was applied. The magnitude of response is dictated by both the response of the reporter cell line and the amount of peptide that can be released from the beads. Both peptide 1 and 2 are full agonists for MC1R when tested in a well-based reporter assay so both peptides are capable of eliciting a response similar to [NDP]-α-MSH.

[3] = biological target: T2, corticotrophin releasing factor receptor (CRHR1) (Homo sapiens, UniProt P34998); assay: Agarose lawn reporter assay, CHO-6xCRE-luc+ cells expressing CRH1 receptor; conditions: approximately 10 nl of 5×10^−4 M to 1.5×10^−6 M peptide solution on lawn by HDR pin tool; 4 hours at 37° C.; FIGS. 7A-7B
T2 construct: expressed in transfected cells
T2 sequence (P34998 24-415): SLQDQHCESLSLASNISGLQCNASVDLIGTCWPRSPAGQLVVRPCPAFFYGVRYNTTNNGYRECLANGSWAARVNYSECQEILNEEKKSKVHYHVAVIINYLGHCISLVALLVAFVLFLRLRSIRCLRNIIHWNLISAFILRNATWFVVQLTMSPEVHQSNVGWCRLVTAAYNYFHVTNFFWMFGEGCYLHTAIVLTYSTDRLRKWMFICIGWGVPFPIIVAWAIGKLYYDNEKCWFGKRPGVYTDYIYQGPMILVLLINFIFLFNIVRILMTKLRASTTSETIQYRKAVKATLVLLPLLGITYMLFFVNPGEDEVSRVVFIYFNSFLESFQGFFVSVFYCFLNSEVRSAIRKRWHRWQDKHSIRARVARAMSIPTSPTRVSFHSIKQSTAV
From the text: Chinese hamster ovary (CHO) cells were transfected with a 6xCRE-luciferase^+reporter gene. A stable host cell line was selected, into which cloned human receptors were transfected. Stable cell lines expressing these receptors were selected for screening purposes.
A reporter gene host cell line stably expressing a reporter construct comprising 6 cyclic AMP response elements (CREs) driving the expression of luciferase (6xCRE-luciferase^+) was generated as described by Goetz et al., (2000) J. Biomolec. Screening 5:377-384. […]
1.5 grams of LMP agarose were dissolved in 100 ml of assay medium (DMEM/F12 medium containing 2% glutamine) in a microwave oven. […] The cells were collected from suspension culture and were re-suspended in 60 ml of assay medium for determination of quantity of cells. […]
Solutions of peptides were then delivered to the lawn using a HDR 96-pin tool that delivers approximately 10 nanoliters (nl) of solution. […] Luminescence was detected using a VIEWLUX® camera.
Images were acquired by focusing luminescent light from the OMNI PLATE® tray, for 90 seconds, onto a CCD camera chip via a telecentric lens. […] The gray intensity was determined by scanning each grid unit to determine where the highest point in the region was located. […] The x and y co-ordinates were recorded to facilitate the production of graphical representations of the data.

T1 sequence (Q01726 whole entry): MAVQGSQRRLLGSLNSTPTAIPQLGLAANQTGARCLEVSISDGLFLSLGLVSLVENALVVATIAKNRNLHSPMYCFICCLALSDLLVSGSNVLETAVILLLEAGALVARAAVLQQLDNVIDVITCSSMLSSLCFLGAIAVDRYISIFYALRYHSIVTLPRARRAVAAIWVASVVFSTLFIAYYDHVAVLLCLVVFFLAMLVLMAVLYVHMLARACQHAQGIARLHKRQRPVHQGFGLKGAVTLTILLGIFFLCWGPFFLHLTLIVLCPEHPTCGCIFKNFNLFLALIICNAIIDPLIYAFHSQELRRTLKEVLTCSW

| Substance | agonist character for MC1R (MC1R [1]) | response value at plateau compared with maximal response to [NDP]-α-MSH (MC1R [2]) | UV exposure time point at which response began to plateau (MC1R [2]) | concentration-response curve of luminescence activity [3] |
| --- | --- | --- | --- | --- |
| Ac-NH-Val-Ala-dHis-dPhe-Arg-Tyr [peptide 2] | full agonists | well below the maximal response to [NDP]-α-MSH | 3 min | – |
| Ac-NH-Ser-Val-dHis-dPhe-Arg-Trp [peptide 1] | full agonists | well below the maximal response to [NDP]-α-MSH | 3 min | – |
| corticotrophin releasing factor [CRH] | – | – | – | concentration-response curve of luminescence activity was only observed when peptide was applied to the cell line expressing the appropriate receptor |
